Test system: STING inhibition in human whole blood (IFNα2α production)
Experiment: Human whole blood assay (HWBA): cGAMP-stimulated IFNα2α production
Format: cell-based
Details: Homo sapiens
In short: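 Na-citrate human whole blood from ≥3 healthy donors, preincubated 60 min at room temperature with compound (8 concentrations, top 10 μM, ~1:5 steps, 0.1% DMSO), then stimulated with cGAMP and incubated 22 h at 37 °C. Plasma IFNα2α measured by MSD immunoassay; % control versus stimulated/unstimulated wells, IC50 by 4-parameter logistic fit.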

Compound | IC50 [nM]
Cc1c(C(C)C)c(-c2cccc3nn(C[C@H](O)c4ccccc4)cc23)nn1-c1cc2cn(C)nc2nc1C1CCCN1 (stereo partly drawn) [Example 111, (1R)-2-(4-{5-Methyl-1-[2-methyl-6-(pyrrolidin-2-yl)-2H-pyrazolo[3,4-b]pyridin-5-yl]-4-(propan-2-yl)-1H-pyrazol-3-yl}-2H-indazol-2-yl)-1-phenylethan-1-ol] | 750
Cc1c(C(C)C)c(-c2cccc3nn(C[C@H](O)c4ccccc4)cc23)nn1-c1cc2cn(C)nc2nc1CN(C)C [Example 112] | 170
Cc1c(C(C)C)c(-c2cccc3nn(C[C@H](O)c4ccccc4)cc23)nn1-c1cc2cn(C)nc2nc1C(C)(C)C [Example 113, (1R)-2-[4-(1-{6-tert-butyl-2-methyl-2H-pyrazolo[3,4-b]pyridin-5-yl}-5-methyl-4-(propan-2-yl)-1 H-pyrazol-3-yl)-2H-indazol-2-yl]-1-phenylethan-1-ol] | 1200

— US20260265244A1, “HETEROCYCLIC COMPOUNDS AS STING ANTAGONISTS” (Boehringer Ingelheim International GmbH, priority 2022, published 2026)
